These are literature values, as cited in PMC6269737, “Effect of Honokiol on Cytochrome P450 and UDP-Glucuronosyltransferase Enzyme Activities in Human Liver Microsomes” (Molecules, 2013).

For one series, the target named is T1, CYP2C8 (Homo sapiens, UniProt P10632).
T1 sequence (P10632 1-490): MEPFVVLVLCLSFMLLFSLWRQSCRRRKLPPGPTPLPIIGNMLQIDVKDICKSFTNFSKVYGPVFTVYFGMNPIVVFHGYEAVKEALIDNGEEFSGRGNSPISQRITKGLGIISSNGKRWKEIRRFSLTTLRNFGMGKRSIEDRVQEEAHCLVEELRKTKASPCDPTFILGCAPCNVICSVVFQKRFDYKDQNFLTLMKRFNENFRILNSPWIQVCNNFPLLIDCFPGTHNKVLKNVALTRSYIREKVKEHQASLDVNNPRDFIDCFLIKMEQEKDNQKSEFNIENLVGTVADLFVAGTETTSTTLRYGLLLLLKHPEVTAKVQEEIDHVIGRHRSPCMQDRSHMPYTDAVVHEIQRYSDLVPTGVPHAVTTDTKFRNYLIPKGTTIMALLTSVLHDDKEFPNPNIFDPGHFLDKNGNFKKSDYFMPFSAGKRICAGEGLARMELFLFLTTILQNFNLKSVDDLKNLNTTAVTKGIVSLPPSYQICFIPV
Conditions: cited from earlier work.

The target in the next series is CYP2C9 (Homo sapiens, UniProt P11712). As to conditions: inhibitory effect towards CYP2C9; cited from earlier work.
Sequence of CYP2C9 (P11712 whole entry): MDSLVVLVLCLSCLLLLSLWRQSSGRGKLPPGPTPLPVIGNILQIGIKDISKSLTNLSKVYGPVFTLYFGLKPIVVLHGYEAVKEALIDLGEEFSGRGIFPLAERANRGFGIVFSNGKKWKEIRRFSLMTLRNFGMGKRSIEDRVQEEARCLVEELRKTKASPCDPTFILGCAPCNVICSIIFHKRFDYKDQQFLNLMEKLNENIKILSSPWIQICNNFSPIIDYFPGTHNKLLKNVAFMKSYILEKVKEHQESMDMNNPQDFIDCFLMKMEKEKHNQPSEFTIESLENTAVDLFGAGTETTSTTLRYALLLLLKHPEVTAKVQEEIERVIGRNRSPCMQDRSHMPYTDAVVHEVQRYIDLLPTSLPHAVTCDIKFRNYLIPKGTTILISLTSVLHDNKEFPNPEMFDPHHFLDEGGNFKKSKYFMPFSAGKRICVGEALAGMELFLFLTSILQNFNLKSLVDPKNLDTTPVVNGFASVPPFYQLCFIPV
Another series addresses T2, CYP1A2 (Homo sapiens, UniProt P05177).
T2 sequence (P05177 1-516): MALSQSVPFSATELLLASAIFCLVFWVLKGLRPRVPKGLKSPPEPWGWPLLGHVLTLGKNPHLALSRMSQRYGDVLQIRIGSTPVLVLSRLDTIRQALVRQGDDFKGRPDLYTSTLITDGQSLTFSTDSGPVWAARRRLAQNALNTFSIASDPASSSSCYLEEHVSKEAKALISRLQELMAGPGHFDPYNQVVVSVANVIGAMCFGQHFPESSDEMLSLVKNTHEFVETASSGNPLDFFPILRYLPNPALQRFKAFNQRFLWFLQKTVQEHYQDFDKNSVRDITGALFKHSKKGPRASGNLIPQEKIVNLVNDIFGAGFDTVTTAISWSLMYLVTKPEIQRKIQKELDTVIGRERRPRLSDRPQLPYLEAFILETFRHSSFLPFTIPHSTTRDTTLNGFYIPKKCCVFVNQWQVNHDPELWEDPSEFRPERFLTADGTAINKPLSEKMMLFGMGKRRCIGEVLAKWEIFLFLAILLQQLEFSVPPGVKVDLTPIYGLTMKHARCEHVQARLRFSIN
The arrangement: method as in PMID 23446989. As to conditions: inhibitory effect towards CYP1A2; cited from earlier work.

The target in the next series is CYP2C19 (Homo sapiens, UniProt P33261). On the set-up: method as in PMID 23446989. As to conditions: inhibitory effect towards CYP2C19; cited from earlier work.
Sequence of CYP2C19 (P33261 whole entry): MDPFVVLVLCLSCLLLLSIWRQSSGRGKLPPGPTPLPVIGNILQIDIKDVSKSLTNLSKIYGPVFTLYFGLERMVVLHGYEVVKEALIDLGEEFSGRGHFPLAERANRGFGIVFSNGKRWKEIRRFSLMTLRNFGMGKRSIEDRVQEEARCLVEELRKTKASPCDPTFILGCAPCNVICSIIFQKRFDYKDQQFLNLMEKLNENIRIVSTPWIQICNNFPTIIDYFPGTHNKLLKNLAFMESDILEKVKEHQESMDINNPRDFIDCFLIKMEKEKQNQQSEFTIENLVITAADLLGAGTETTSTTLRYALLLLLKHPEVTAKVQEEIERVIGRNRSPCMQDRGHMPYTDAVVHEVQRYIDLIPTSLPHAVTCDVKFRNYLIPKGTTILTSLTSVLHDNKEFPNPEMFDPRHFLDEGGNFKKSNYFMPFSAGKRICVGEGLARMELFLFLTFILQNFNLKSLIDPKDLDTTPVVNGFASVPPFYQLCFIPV
The target in the next series is T3, CYP2B6 (Homo sapiens, UniProt P20813).
T3 sequence (P20813 1-491): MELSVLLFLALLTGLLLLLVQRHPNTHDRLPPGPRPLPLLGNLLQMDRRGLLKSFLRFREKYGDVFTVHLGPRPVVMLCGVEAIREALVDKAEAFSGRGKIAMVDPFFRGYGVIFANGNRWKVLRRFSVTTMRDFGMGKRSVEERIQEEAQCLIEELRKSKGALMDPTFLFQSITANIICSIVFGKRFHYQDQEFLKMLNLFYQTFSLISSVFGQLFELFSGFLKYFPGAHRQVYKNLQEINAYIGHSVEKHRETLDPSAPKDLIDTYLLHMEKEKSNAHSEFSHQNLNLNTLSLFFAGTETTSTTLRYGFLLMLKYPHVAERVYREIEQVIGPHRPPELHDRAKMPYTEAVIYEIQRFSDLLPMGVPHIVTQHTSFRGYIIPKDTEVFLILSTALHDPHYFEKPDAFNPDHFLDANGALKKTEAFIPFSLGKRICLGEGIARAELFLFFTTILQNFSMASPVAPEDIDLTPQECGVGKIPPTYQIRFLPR
The arrangement: method as in PMID 23446989. Conditions: inhibitory effect towards CYP2B6; cited from earlier work.

In the next series the target is T4, UGT1A9 (Homo sapiens, UniProt O60656).
T4 sequence (O60656 26-530): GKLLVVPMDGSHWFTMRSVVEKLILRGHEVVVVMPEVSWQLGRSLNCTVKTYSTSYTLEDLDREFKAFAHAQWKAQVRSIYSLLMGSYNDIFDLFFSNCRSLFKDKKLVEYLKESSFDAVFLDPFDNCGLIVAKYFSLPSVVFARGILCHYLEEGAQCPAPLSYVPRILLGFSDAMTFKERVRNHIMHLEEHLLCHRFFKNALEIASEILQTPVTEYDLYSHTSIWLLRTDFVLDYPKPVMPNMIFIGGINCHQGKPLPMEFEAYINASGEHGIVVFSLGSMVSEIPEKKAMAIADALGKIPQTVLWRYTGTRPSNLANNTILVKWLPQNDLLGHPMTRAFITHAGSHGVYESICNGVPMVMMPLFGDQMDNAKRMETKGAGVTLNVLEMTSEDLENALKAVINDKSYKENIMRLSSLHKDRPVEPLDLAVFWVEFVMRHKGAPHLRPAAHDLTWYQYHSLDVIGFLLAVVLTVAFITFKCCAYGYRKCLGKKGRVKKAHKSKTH
On the set-up: method as in PMID 21245288. Conditions: selective UGT1A9 inhibitor; cited from earlier work.

In general, IC50 refers to the concentration at which inhibition is half-maximal. On to `C=CCc1ccc(Oc2cc(CC=C)cc(O)c2O)cc1` [obovatol], for which the half-maximal inhibitory concentration (IC50) is 11.1 µM at CYP2C8 (inhibitory effect towards CYP2C8); 3.3 µM at CYP2C9; 4.4 µM at CYP1A2; 0.8 µM on CYP2C19; 13.9 µM on CYP2B6.

As a reminder, the Ki is the equilibrium dissociation constant of an inhibitor or competing ligand from its target. As for `Cc1ccc(C)c(OCCCC(C)(C)C(=O)O[C@@H]2O[C@H](C(=O)O)[C@@H](O)[C@H](O)[C@H]2O)c1` [gemfibrozil glucuronide], the Ki at CYP2C8 (selective CYP2C8 inhibitor) was 20 to 52 µM.

On to `O=C(O)c1cccnc1Nc1cccc(C(F)(F)F)c1` [niflumic acid], for which the Ki on UGT1A9 was 0.1 to 0.4 µM.
